Experimental data taken from patent publication US20260257980A1, “NOVEL DIMETHYLCHALCONE DERIVATIVE” (CHUNG-ANG UNIVERSITY INDUSTRY-ACADEMIC COOPERATION …, priority 2022, published 2026).

Test system: C2C12 myoblasts differentiated into myotubes
Assay: Fatty acid oxidation rate (14CO2 from [1-14C] palmitate) in differentiated C2C12 myotubes
Assay type: cell-based
Settings: 10 μM DMC derivative, 24 hours, lysate with 0.2 mmol/L [1-14C] palmitate, 3 hours, positive control AICAR, control compounds CON1-CON6, FIG. 1
Description: To measure the fatty acid oxidation rate, C2C12 myoblasts were primarily cultured in DMEM supplemented with 10% fetal bovine serum, and then cultured for 5 days in DMEM supplemented with 2% horse serum in order to differentiate into myotubes. Then, the differentiated myotubes were treated with 10 μM of the DMC derivative, and cultured for 24 hours, and the cells were then harvested. Next, the harvested cells were lysed using a mitochondrial isolation buffer (250 mmol/L sucrose, 10 mmol/L Tris-HCl, and 1 mmol/L EDTA), treated with 0.2 mmol/L [1-^14C] palmitate, and then allowed to react for 3 hours. Next, the amount of ^14CO2 thus generated was measured, and the measured amount of ^14CO2 was corrected for the total amount of proteins to compare the fatty acid oxidation rate. In this case, AICAR was used as a positive control, and the compounds shown in Table 2 below were used as control compounds.

| Structure (SMILES) | fatty acid oxidation rate (amount of 14CO2 generated, corrected for total protein) |
| --- | --- |
| COCOc1c(C)c(O)c(C(=O)/C=C/c2cccc(F)c2)c(OC)c1C [Compound 1, 1-(2′-hydroxy-4′-(methoxymethoxy)-6′-methoxy-3′,5′-dimethylphenyl)-3-(3-fluorophenyl)-2-propen-1-one] | higher fatty acid oxidation effect than the derivatives (CON1, CON2) |
| COc1c(C)c(O)c(C)c(O)c1C(=O)/C=C/c1cccc(F)c1 [Compound 8, 1-(2′,4′-dihydroxy-6′-methoxy-3′,5′-dimethylphenyl)-3-(3-fluorophenyl)-2-propen-1-one] | higher fatty acid oxidation effect than the derivatives (CON3, CON4) |
| COc1c(C)c(OC)c(C(=O)/C=C/c2cccc(F)c2)c(OC)c1C [Compound 15, 1-(2′,4′,6′-trimethoxy-3′,5′-dimethylphenyl)-3-(3-fluorophenyl)-2-propen-1-one] | higher fatty acid oxidation effect than the derivatives (CON5, CON6) |
